Legend:
P. acnes (+) [1] = test: porfimer sodium aPDT, planktonic culture; format: cell-based, Proprionibacterium acnes (Cutibacterium acnes); conditions: 630 nm, kill at 75 J/cm2 (light dose 50-100 J/cm2), porfimer sodium 150 μg/mL
Method: (§1) Bacteria were routinely cultured using tryptic soy broth or agar at 37° C. in a 5% CO2 incubator. Bacteria were isolated and suspended with 0.9% NaCl to an Optical Density (OD) of 0.1 taken at 630 nm, to generate the inoculum used for either planktonic or biofilm assays.
(§2) Experiments using planktonic cultures were carried out using M. catarrhalis, as a standard for further comparisons and to determine the effective drug concentration, porfimer sodium incubation time and light dose parameters which would provide an effective cell kill at the level of 5-7 logs. Once determined the experiments were repeated for all other bacterial strains examined.
(§3) The colony forming units (CFU) per mL of the starting inoculum for every experiment was determined by dilution plating. […]
(§4) Bacteria were exposed to 630 nm laser light via a fiber optic with a lens affixed to the distal end to provide a uniform diverging light field. […] Power output of the laser was measured using a UDT/Gamma Scientific 371 optical power meter and an integrating sphere. […]
(§5) Biofilms were formed on glass coupons in culture dishes containing a bacterial inoculum for 48 hours under conditions specific to the strain. […] Power output of the laser was measured using a UDT/Gamma Scientific 371 optical power meter and an integrating sphere. […]

Prevotella (−) = test: porfimer sodium aPDT, planktonic culture; format: cell-based; conditions: 630 nm, kill at 75 J/cm2 (light dose 50-100 J/cm2), porfimer sodium 150 μg/mL
Method: as §1, §2, §3, §4, §5

MRSA (+) = test: porfimer sodium aPDT, planktonic culture; format: cell-based, methicillin-resistant Staphylococcus aureus; conditions: 630 nm, 200 J/cm2, porfimer sodium 125 μg/mL
Method: as §1, §2, §3, §4, §5

A. baumannii (−) = test: porfimer sodium aPDT, planktonic culture; format: cell-based, Acinetobacter baumannii; conditions: 630 nm, 200 J/cm2, porfimer sodium 125 μg/mL
Method: as §1, §2, §3, §4, §5

S. pneumo (+) = test: porfimer sodium aPDT, planktonic culture; format: cell-based, Streptococcus pneumoniae; conditions: 630 nm, 100 J/cm2, porfimer sodium 125 μg/mL
Method: as §1, §2, §3, §4, §5

F. nucleatum (−) = test: porfimer sodium aPDT, planktonic culture; format: cell-based, Fusobacterium nucleatum; conditions: 630 nm, 50 J/cm2, porfimer sodium 125 μg/mL
Method: as §1, §2, §3, §4, §5

P. anaerobius (+) = test: porfimer sodium aPDT, 48 hour biofilm culture; format: cell-based, Peptostreptococcus anaerobius; conditions: 630 nm, kill at 100 J/cm2 (light dose 75-100 J/cm2), porfimer sodium 250 μg/mL
Method: as §1
(§6) The colony forming units (CFU) per mL of the starting inoculum for every experiment was determined by dilution plating. Control samples were exposed to laser at 630 nm in the absence of porfimer sodium, porfimer sodium in the absence of laser exposure, or in saline alone in the absence of porfimer sodium and 630 nm laser light. All experimental samples were dilution plated to enumerate viable CFU's. Three independent replicates were performed for each reaction condition per strain per assay. […]
as §4, §5

P. acnes (+) [2] = test: porfimer sodium aPDT, 48 hour biofilm culture; format: cell-based, Proprionibacterium acnes (Cutibacterium acnes); conditions: 630 nm, kill at 100 J/cm2 (light dose 75-100 J/cm2), porfimer sodium 250 μg/mL
Method: as §1, §6, §4, §5

[3] = format: in vivo, Yorkshire pigs; conditions: abraded wounds, Example 3
Text: This study evaluated the antimicrobial activity and local safety of porfimer sodium when applied to abraded wounds in Yorkshire pigs.
On Day −2 of the study, pigs were anesthetized and the skin aseptically prepared. Superficial wounds were created using the tape strip method until punctate bleeding was observed. Also on Day −2, eight wounds per pig were inoculated with one of three bacterial cultures (Haemophilus influenza, Moraxella catarrhalis, or Staphylococcus aureus) at a concentration of 10^7-10^8 CFUs per mL. There were two control sites on each side. […] The wounds were covered, analgesia in the form of buprenorphine (IM, 0.03 mg/kg) was provided, and the animals were recovered from anesthesia.

Work on porfimer sodium yielded a Rate of kill (P. acnes (+) [1]) of 7Log, a Rate of kill (Prevotella (−)) of 7Log and a Rate of kill (MRSA (+)) of over 6Log. For the same substance, the Rate of kill (A. baumannii (−)) was 1Log, the Rate of kill (S. pneumo (+)) was over 4Log and the Rate of kill (F. nucleatum (−)) was 3Log. The Rate of kill (P. anaerobius (+)) was over 6Log, the Rate of kill (P. acnes (+) [2]) was 7Log and the “histopathological observations, treated sites vs control sites” value [3] was “no significant difference between treated sites and control sites”.

— patent US12090204B2, “Photodynamic therapy compositions and methods of use thereof” (Pinnacle Biologics, Inc., priority 2020, dated 2024)
